In brackets after ≈: the same amount, converted by molar mass.
Tested on: not listed separately
Assay: Lipophilicity, log P of compound
Settings: octanol/water
Compound Cn1c(NCCc2ccc(-c3ncc(Cl)cn3)cc2)nc2cc(Cl)ccc2c1=O has a logP of 5.02.

Tested on: not listed separately
Assay: Permeability in human Caco2 cells
Settings: caco-2
For Cn1c(NCCc2ccc(-c3ncc(Cl)cn3)cc2)nc2cc(Cl)ccc2c1=O, the permeability was “Permeable”.

Tested on: Mycobacterium tuberculosis
Assay: (§1) Antimycobacterial activity against Mycobacterium tuberculosis H37Rv infected in Balb/c mouse assessed as bacterial burden in lungs at 10 mg/kg, po administered daily through gavage for 2 weeks starting on day 2 post infection as 5% soluplus/acetate buffer formulation measured on day 12 post infection (reference value: 6.4 log10CFU)
Type: functional, Lung
Settings: not given
With Cn1c(NCCc2ccc(-c3ccc(F)cc3)cc2)nc2cc(Cl)ccc2c1=O.O=S(=O)(O)O the Activity was 6.6 log10CFU.

Tested on: Mycobacterium tuberculosis
Assay: as §1, with “at 100” for “at 10”
Type: functional, Lung
Settings: not given
Compound Cn1c(NCCc2ccc(-c3ccc(F)cc3)cc2)nc2cc(Cl)ccc2c1=O.O=S(=O)(O)O has an Activity of 5.5 log10CFU.

Tested on: Mycobacterium tuberculosis
Assay: Antimycobacterial activity against Mycobacterium tuberculosis H37Rv incubated for 5 days by Bactiter-Glo assay
Type: functional
Settings: 120 h
Cn1c(NCCc2ccc(-c3ccc(F)cn3)cc2)nc2cc(Cl)ccc2c1=O gave an MIC80 of 0.015 µM (≈ 0.00613 µg/mL). Compound Cn1c(NCCc2ccc(-c3ncc(Cl)cn3)cc2)nc2cc(Cl)ccc2c1=O has an MIC80 of 0.006 µM (≈ 0.00256 µg/mL). Work on COc1cnc(-c2ccc(CCNc3nc4cc(Cl)ccc4c(=O)n3C)cc2)nc1 yielded an MIC80 of 0.016 µM (≈ 0.00675 µg/mL).

Tested on: not listed separately
Assay: AUC in Balb/c mouse plasma infected with Mycobacterium tuberculosis H37Rv at 300 mg/kg, po administered through gavage as 5% soluplus/acetate buffer formulation
Type: ADME, organism-based
Settings: not given
With Cn1c(NCCc2ccc(-c3ccc(F)cc3)cc2)nc2cc(Cl)ccc2c1=O.O=S(=O)(O)O the AUC was 140 µg·h/mL.

Tested on: Mycobacterium tuberculosis
Assay: as §1, with “at 30” for “at 10”
Type: functional, Lung
Settings: not given
Cn1c(NCCc2ccc(-c3ccc(F)cc3)cc2)nc2cc(Cl)ccc2c1=O.O=S(=O)(O)O gave an Activity of 5.8 log10CFU.

Tested on: Mycobacterium tuberculosis
Assay: Antimycobacterial activity against GFP-tagged Mycobacterium tuberculosis H37Rv infected in mouse RAW264.7 cells incubated for 4 days by Mask blue/Hoechst/FITC staining based fluorescence microscopic analysis
Type: functional
Settings: 96 h
Work on Cn1c(NCCc2ccc(-c3ccc(F)cn3)cc2)nc2cc(Cl)ccc2c1=O yielded an MIC80 of 0.051 µM (≈ 0.0209 µg/mL). With Cn1c(NCCc2ccc(-c3ncc(Cl)cn3)cc2)nc2cc(Cl)ccc2c1=O the MIC80 was 0.947 µM (≈ 0.404 µg/mL). In the case of COc1cnc(-c2ccc(CCNc3nc4cc(Cl)ccc4c(=O)n3C)cc2)nc1, the MIC80 is reported as 0.081 µM (≈ 0.0342 µg/mL).

Tested on: Mycobacterium tuberculosis
Assay: Antimycobacterial activity against Mycobacterium tuberculosis H37Rv incubated for 5 days in presence of 25% human serum by Bactiter-Glo assay
Type: functional
Settings: 120 h
Cn1c(NCCc2ccc(-c3ccc(F)cn3)cc2)nc2cc(Cl)ccc2c1=O showed an MIC80 of 3.14 µM. In the case of Cn1c(NCCc2ccc(-c3ncc(Cl)cn3)cc2)nc2cc(Cl)ccc2c1=O, the MIC80 is reported as 0.11 µM. In the case of COc1cnc(-c2ccc(CCNc3nc4cc(Cl)ccc4c(=O)n3C)cc2)nc1, the MIC80 is reported as 3.52 µM.

Tested on: not listed separately
Assay: Time at which plasma concentration stays above invitro MIC80 in presence of mouse serum Balb/c mouse infected with Mycobacterium tuberculosis H37Rv at 300 mg/kg, po administered through gavage as 5% soluplus/acetate buffer formulation
Type: ADME, organism-based
Settings: in vivo
In the case of Cn1c(NCCc2ccc(-c3ccc(F)cc3)cc2)nc2cc(Cl)ccc2c1=O.O=S(=O)(O)O, the Time is reported as greater than 24 h.

Tested on: not listed separately
Assay: Aqueous equilibrium solubility of compound in pH 7.4 solution at 20 degC
Settings: aqueous pH 7.4 solution
Compound Cn1c(NCCc2ccc(-c3ncc(Cl)cn3)cc2)nc2cc(Cl)ccc2c1=O has a solubility thermodynamic of less than 1 µg/mL.

Tested on: not listed separately
Assay: Cytotoxicity against human HepG2 cells assessed as reduction in cell viability after 40 hrs by Celltiter-Glo assay
Settings: HepG2 cells
Compound Cn1c(NCCc2ccc(-c3ncc(Cl)cn3)cc2)nc2cc(Cl)ccc2c1=O has an IC50 at 40 h greater than 30 µM.

Same assay, conditions: hepg2
Compound Cn1c(NCCc2ccc(-c3ccc(F)cn3)cc2)nc2cc(Cl)ccc2c1=O has an IC50 at 40 h of 19 µM. COc1cnc(-c2ccc(CCNc3nc4cc(Cl)ccc4c(=O)n3C)cc2)nc1 gave an IC50 at 40 h greater than 30 µM.

Tested on: not listed separately
Assay: AUC in Balb/c mouse lungs infected with Mycobacterium tuberculosis H37Rv at 300 mg/kg, po administered through gavage as 5% soluplus/acetate buffer formulation
Type: ADME, organism-based
Settings: lung
In the case of Cn1c(NCCc2ccc(-c3ccc(F)cc3)cc2)nc2cc(Cl)ccc2c1=O.O=S(=O)(O)O, the AUC is reported as 980 µg·h/mL.

Tested on: Mycobacterium tuberculosis
Assay: as §1, with “at 300” for “at 10”
Type: functional, Lung
Settings: not given
For Cn1c(NCCc2ccc(-c3ccc(F)cc3)cc2)nc2cc(Cl)ccc2c1=O.O=S(=O)(O)O, the Activity was 4.9 log10CFU.

Tested on: Mycobacterium tuberculosis
Assay: Antimycobacterial activity against Mycobacterium tuberculosis H37Rv infected in po dosed Balb/c mouse assessed as bacterial burden in lungs administered daily through gavage starting on day 2 post infection for 4 days per week for 2 weeks each 4 days dosing followed by 2 days compound washout measured on day 12 post infection (reference value: 8 log10CFU)
Type: functional, Lung
Settings: not given
Work on CC[C@@H](CO)NCCN[C@@H](CC)CO [ETHAMBUTOL] yielded an Activity of 7 log10CFU.

Tested on: not listed separately
Assay: Aqueous equilibrium solubility of compound in pH 1 solution at 20 degC
Settings: aqueous pH 1 solution
For Cn1c(NCCc2ccc(-c3ncc(Cl)cn3)cc2)nc2cc(Cl)ccc2c1=O, the solubility thermodynamic was 10 µg/mL (≈ 23.5 µM).
